This test addresses T1, SARS-CoV-2 M^pro (Severe acute respiratory syndrome coronavirus 2, UniProt P0DTD1).
T1 construct: the gene for M^pro (ORF1ab residues 3264 to 3569, GenBank code: MN908947.3); Sumo fusion with M^pro cleavage site (SAVLQ↓SGFRK) (N, cleaved yes); 6xHis-tag behind PreScission site (SGVTFQ↓GP) (C); made in house; host or cells: E. coli BL21(DE3)
Kind of test: M^pro enzyme inhibition assay, proteolytic cleavage of fluorescent peptide reporter, Ki by Morrison equation. The note with it: for decrease of activity compared to CDD-1733: from Ki values. The format is biochemical. The text has this: Hydrolysis of the fluorescent peptide was monitored at an emission wavelength of 460 nm with an excitation wavelength of 360 nm using a TECAN M200 plate reader. Initial hydrolysis rates of fluorescent peptide were plotted as a function of compound concentrations, and Ki values were obtained by fitting the data into the Morrison equation[32] with SE from triplicates.
inhibitors. […] The remaining activities (red dots) of Mpro towards fluorescent
peptide we re plotted as a function of compound concentrations and Ki values wa s calculated by fitting the da ta int o Morrison equation wit h standard error f romS6 […]

The mark [1] stands for this setting: 25 nM Mpro with authentic termini (no His-tag), standard error from triplicates, Inactive: less than 50% inhibition with 25 µM compound, read-out: Mpro Ki.
[2] abbreviates: Fig. 2, Suppl. Fig. 1, construct not given, Inactive: inhibited M^pro activity by less than 90% with 25 μM, read-out: Ki.
Where [3] appears, read: 25 nM Mpro with authentic termini (no His-tag), standard error from triplicates, Inactive: less than 50% inhibition with 25 µM compound.
[4] abbreviates: 25 nM Mpro-6-His, standard error from triplicates, Inactive: less than 50% inhibition with 25 µM compound in initial screening.
Setting [5] is: Fig. 2, Suppl. Fig. 1, construct not given, Inactive: inhibited M^pro activity by less than 90% with 25 μM.

Data on 18 compounds can be found in PMC10403511, “DNA-encoded chemical libraries yield non-covalent and non-peptidic SARS-CoV-2 main protease inhibitors” (Communications Chemistry, 2023).

“Also recorded” adds a separate entry of the source. Where two headings read alike, the source gives them in different places.

In general, Ki refers to a measure of affinity in units of concentration, obtained from inhibition or displacement. With `CCC[C@H](NC(=O)c1cccc2nc(-c3cncc4ccccc34)n([C@H]3C[C@H](C(=O)NC)C3)c12)c1ccc(OC(F)F)cc1` [CDD-1780], the inhibition constant (Ki) under setting [1] is 16 ± 2 nM and the Ki under setting [2] is 14 nM.

Take `CCC[C@H](NC(=O)c1cccc2nc(-c3cncc4ccccc34)n([C@H]3CC[C@H](C(=O)NC)C3)c12)c1ccc(C(F)(F)F)cc1` [CDD-1790]: the inhibition constant (Ki) is, setting by setting: (read-out: Ki) 620 nM; (read-out: Mpro Ki) 664 ± 66 nM.

Take `CCC[C@H](NC(=O)c1cccc2nc(-c3cncc4ccccc34)n([C@H]3C[C@H](C(=O)NC)C3)c12)c1cccc(C(F)(F)F)c1` [CDD-1795]: the “decrease of activity compared to CDD-1733” value is given as “approximately 2 fold”. For the same compound, under setting [1], the Ki is 35 ± 5 nM. Moreover, under setting [2], the Ki stood at 29 nM.

As for `CCC[C@H](NC(=O)c1cccc2nc(-c3cncc4ccccc34)n(C(C)C)c12)c1ccc(C(F)(F)F)cc1` [CDD-1804], the “Mpro Ki” value under setting [3] is “Inactive”. In addition, the “Mpro-His Ki” value under setting [4] is listed as “Inactive”. The Ki result under setting [5] is recorded as “completely abolished; also recorded: greatly reduces potency”.

In the case of `CCC[C@H](NC(=O)c1cccc2nc(-c3cncc4ccccc34)n(C3CCC3)c12)c1ccc(C(F)(F)F)cc1` [CDD-1806], the “decrease of activity compared to CDD-1733” value is “more than 14 fold”. In addition, the inhibition constant Ki result under setting [5] is given as “greatly reduces potency”.

Regarding `CCC[C@H](NC(=O)c1cccc2nc(-c3cncc4ccccc34)n(C3CCNCC3)c12)c1ccc(C(F)(F)F)cc1` [CDD-1818], the Ki runs as follows: (read-out: Ki) 1470 nM; (read-out: Mpro Ki) 1710 ± 128 nM.

`CNC(=O)[C@H]1C[C@H](n2c(-c3cncc4ccccc34)nc3cccc(C(=O)N[C@@H](C)c4ccc(C(F)(F)F)cc4)c32)C1` [CDD-1829]: the Ki by setting is: under setting [1], 48 ± 5 nM; under setting [2], 46 nM.

For the compound `CCC[C@H](NC(=O)c1cccc2nc(-c3cncc4ccccc34)n(CCCC(=O)NC)c12)c1ccc(C(F)(F)F)cc1` [CDD-1830], the Ki was found to be 6 ± 1 nM under setting [1]; 6 ± 1 nM (25 nM Mpro-6-His, standard error from triplicates, Inactive: less than 50% inhibition with 25 µM compound in initial screening, read-out: Mpro-His Ki); 6 nM under setting [2].

In the case of `CCC[C@H](NC(=O)c1cccc2nc(-c3cccnc3)n([C@H]3C[C@H](C(=O)NC)C3)c12)c1ccc(C(F)(F)F)cc1` [CDD-1831], the “Mpro Ki” value under setting [3] is recorded as “Inactive”. The “Mpro-His Ki” value under setting [4] is “Inactive”. In addition, under setting [5], the Ki entry was “total loss of activity; also recorded: inactive or exhibit greatly decreased potency”.

As for `CNC(=O)[C@H]1C[C@H](n2c(-c3cncc4ccccc34)nc3cccc(C(=O)N[C@@H](C)c4ccccc4)c32)C1` [CDD-1841], the inhibitory constant (Ki) turned out to be 571 nM (read-out: Ki) and 565 ± 55 nM (read-out: Mpro Ki).

`CNC(=O)[C@H]1C[C@H](n2c(-c3cncc4ccccc34)nc3cccc(C(=O)NC(C)C)c32)C1` [CDD-1842]: under setting [3], the “Mpro Ki” value was “Inactive”. Also, the “Mpro-His Ki” value under setting [4] is reported as “Inactive”. Besides, the Ki result under setting [5] was “completely inactive”.

On to `CCC[C@H](NC(=O)c1cccc2nc(-c3cncc4ccccc34)n([C@H]3C[C@H](C(=O)NC)C3)c12)c1ccccc1` [CDD-1843], for which the “Mpro Ki” value is “Inactive” and the “Mpro-His Ki” value is recorded as “Inactive”.

For the compound `CNC(=O)CCCn1c(-c2ccc3cnccc3c2)nc2cccc(C(=O)N[C@@H](C)c3ccc4ccccc4c3)c21` [CDD-1884], the Ki result is “inactive or exhibit greatly decreased potency”, the “Mpro Ki” value was “Inactive” and the “Mpro-His Ki” value is “Inactive”.

Take `CNC(=O)CCCn1c(-c2cccc3ccccc23)nc2cccc(C(=O)N[C@@H](C)c3ccc4ccccc4c3)c21` [CDD-1885]: the “Mpro Ki” value is reported as “Inactive” and the “Mpro-His Ki” value is reported as “Inactive”.

In the case of `CNC(=O)CCCn1c(-c2ccnc3ccccc23)nc2cccc(C(=O)N[C@@H](C)c3ccc4ccccc4c3)c21` [CDD-1906], the “Mpro Ki” value is recorded as “Inactive” and the “Mpro-His Ki” value is reported as “Inactive”.

As to `CNC(=O)CCCn1c(-c2cnccc2C)nc2cccc(C(=O)N[C@@H](C)c3ccc4ccccc4c3)c21` [CDD-1924], the Ki (read-out: Mpro Ki) is 426 ± 47 nM.

In the case of `CNC(=O)CCCn1c(-c2cncc3ccccc23)nc2cccc(C(=O)NCc3ccc4ccccc4c3)c21` [CDD-1925], the Ki came to 51 nM (read-out: Ki) and 42 ± 5 nM (read-out: Mpro Ki).

On to `CNC(=O)CCCn1c(-c2ccc(N)nc2)nc2cccc(C(=O)N[C@@H](C)c3ccc4ccccc4c3)c21` [CDD-1926], for which the Ki result was “inactive or exhibit greatly decreased potency”, the “Mpro Ki” value is reported as “Inactive” and the “Mpro-His Ki” value was “Inactive”.
